Experimental data: ChEMBL document CHEMBL1201862, “PubChem BioAssay data set” (2004)
The source made the active and inactive calls.

Assays:
Paired box protein Pax-8 = Paired box protein Pax-8 (Homo sapiens, UniProt Q06710); assay: inhibitors of PAX8-driven TPO luciferase reporter, dose response, RMG-I cells, cherry-pick (AID 687027); format: functional, cell-based;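 also: luciferase reporter driven by Pax8 target thyroperoxidase promoter measured by SteadyGlo luminescence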
H9c2 = assay: cells; format: functional, cell-based; conditions: Rattus norvegicus, H9c2, Myocardium;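 also: confirmatory concentration-response retest of ultra-high-throughput screening hits for modulation of myocardial damage; cell death induced by hydrogen peroxide oxidative stress; compound pretreatment for 60 min then peroxide exposure for 2 h; potency is for protecting the cells against peroxide damage rather than for killing them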
[1] = molecular target: FAD-linked sulfhydryl oxidase ALR (Homo sapiens, UniProt P55789); assay: inhibitors of human ALR sulfhydryl oxidase, dose response, biochemical, H2O2 detection, luminescence, cherry-pick (AID 493248)
[2] = growth suppression of PTEN-null colon cells, dose response, cell-based, HCT116 PTEN knockout (AID 1047); format: functional;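 also: HCT116 colon tumor cells with PTEN knocked out; cells exposed to compound for 60 hours before readout; potency for loss of cell viability measured by luminescence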
[3] = growth suppression of beta-catenin-knockout colon cells, dose response, cell-based, HCT116, human colon tumor (AID 1045); format: functional;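 also: HCT116 colon tumor cells with beta catenin knocked out; cells exposed to compound for 60 hours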
[4] = molecular target: T1, Replicative DNA helicase DnaB (Mycobacterium tuberculosis, UniProt P9WMR3); assay: DnaB intein splicing inhibitors, dose response, biochemical, cell-free fluorescence (AID 449749); format: functional
T1 sequence (P9WMR3 whole entry): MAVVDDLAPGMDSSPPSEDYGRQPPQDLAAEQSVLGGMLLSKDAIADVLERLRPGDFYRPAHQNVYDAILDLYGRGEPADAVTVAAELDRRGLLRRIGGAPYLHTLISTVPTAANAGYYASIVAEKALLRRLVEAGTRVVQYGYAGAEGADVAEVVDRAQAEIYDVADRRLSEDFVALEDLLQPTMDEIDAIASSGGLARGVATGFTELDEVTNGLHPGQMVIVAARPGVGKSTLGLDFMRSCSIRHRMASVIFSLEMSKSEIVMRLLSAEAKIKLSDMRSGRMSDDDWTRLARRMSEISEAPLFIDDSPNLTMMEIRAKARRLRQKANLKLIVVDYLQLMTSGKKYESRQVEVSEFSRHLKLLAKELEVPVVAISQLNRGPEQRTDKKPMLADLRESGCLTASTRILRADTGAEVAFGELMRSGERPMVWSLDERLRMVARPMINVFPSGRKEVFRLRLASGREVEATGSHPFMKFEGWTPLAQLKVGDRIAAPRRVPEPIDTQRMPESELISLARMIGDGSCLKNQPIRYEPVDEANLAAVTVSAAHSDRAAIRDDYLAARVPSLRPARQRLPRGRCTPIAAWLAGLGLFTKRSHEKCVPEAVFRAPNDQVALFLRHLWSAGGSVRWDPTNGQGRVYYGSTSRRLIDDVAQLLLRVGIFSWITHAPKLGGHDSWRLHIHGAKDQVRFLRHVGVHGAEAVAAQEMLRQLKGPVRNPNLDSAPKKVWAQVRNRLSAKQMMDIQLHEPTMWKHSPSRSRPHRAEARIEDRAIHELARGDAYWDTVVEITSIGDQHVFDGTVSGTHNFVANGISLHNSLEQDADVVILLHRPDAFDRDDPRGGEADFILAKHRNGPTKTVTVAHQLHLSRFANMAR

Protein RecA = molecular target: T2, Protein RecA (Mycobacterium tuberculosis, UniProt P9WHJ3); assay: Fluorescence Cell-Free Homogeneous Dose Retest to Identify Inhibitors of RecA-Intein Splicing Activity. [Related pubchem assays (depositor defined):AID2097, AID2223, AID489010, AID492950]; format: functional
T2 sequence (P9WHJ3 whole entry): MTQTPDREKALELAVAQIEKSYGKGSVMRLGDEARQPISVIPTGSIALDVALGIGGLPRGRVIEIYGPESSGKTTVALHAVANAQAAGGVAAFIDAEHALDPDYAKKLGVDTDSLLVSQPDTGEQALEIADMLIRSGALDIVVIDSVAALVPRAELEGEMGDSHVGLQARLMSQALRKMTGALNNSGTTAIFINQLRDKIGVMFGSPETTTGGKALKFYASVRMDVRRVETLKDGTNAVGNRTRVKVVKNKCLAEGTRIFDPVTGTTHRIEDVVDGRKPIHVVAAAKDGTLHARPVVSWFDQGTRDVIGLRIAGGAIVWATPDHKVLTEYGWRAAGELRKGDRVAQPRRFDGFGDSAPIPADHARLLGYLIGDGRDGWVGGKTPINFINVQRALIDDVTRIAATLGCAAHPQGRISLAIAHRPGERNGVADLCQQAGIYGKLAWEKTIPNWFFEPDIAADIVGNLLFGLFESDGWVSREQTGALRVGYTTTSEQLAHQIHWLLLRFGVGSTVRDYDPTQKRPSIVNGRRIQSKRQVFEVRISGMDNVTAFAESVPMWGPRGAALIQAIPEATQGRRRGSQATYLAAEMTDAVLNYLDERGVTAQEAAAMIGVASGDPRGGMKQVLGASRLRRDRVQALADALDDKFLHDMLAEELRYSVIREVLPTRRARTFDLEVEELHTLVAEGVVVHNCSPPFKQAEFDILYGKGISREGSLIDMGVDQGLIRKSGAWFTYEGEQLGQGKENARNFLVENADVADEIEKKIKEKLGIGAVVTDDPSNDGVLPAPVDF

Vero = assay: cells; format: functional; conditions: Chlorocebus sabaeus
[5] = molecular target: T3, Microphthalmia-associated transcription factor (Homo sapiens, UniProt O75030); assay: TRPM1 promoter luciferase signal decrease, dose response, MITF inhibitor project, cell-based, SK-MEL-5, cherry-picked, set 3 (AID 493073); format: functional
T3 sequence (O75030 whole entry): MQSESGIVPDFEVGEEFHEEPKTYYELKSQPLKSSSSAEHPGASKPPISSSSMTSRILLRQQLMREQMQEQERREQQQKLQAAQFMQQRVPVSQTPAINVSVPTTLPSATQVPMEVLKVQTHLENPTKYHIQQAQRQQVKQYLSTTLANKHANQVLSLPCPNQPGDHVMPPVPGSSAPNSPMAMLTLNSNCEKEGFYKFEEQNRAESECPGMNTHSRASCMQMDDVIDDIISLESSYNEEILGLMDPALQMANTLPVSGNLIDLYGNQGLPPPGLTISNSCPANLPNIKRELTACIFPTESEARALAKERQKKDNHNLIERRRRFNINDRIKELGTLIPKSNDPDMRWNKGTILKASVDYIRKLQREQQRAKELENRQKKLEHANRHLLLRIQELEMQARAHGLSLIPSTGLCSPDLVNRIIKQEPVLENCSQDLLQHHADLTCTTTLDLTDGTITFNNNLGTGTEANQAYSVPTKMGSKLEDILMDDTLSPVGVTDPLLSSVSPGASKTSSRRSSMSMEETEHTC

[6] = C. albicans growth with fluconazole, confirmation, fluorescence, retest (AID 2467); format: functional, cell-based
[7] = NIH-3T3 fibroblast cytotoxicity, dose response, cytotoxicity control, cell-based, fluorescence, Alamar Blue, secondary assay (AID 2327); format: functional;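 also: NIH-3T3 mouse fibroblasts cultured with fluconazole at 8 µg/mL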
[8] = HEp-2 cell cytotoxicity, dose response, cytotoxicity control for RSV inhibitor project, HTS (AID 2410); format: functional; conditions: human respiratory syncytial virus
[9] = molecular target: T4, Calpain-2 catalytic subunit (Sus scrofa, UniProt P43367); assay: pig calpain II inhibitor potency, dose response, biochemical, fluorogenic peptide substrate (AID 1420); format: functional
T4 sequence (P43367 whole entry): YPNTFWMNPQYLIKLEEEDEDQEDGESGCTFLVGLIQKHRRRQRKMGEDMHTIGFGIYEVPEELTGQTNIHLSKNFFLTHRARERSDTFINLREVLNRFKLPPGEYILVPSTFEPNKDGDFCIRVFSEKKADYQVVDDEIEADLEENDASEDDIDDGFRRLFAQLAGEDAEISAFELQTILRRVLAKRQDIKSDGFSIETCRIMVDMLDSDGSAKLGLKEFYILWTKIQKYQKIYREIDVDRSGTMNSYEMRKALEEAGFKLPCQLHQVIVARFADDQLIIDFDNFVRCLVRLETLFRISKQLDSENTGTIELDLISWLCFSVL

[10] = inhibitors of HIV Env-driven cell fusion, dose response, cherry-pick (AID 652057); format: functional, cell-based
[11] = off-target signal loss in HeLa-CEM21 co-culture – HeLa F-luc CTL cells, cherry-picked, counter-screen for HIV-1 Env fusion inhibitor project, dose response (AID 652040); format: functional, cell-based;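 also: potency for signal decrease marking cytotoxic or nonspecific inhibition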
[12] = molecular target: Induced myeloid leukemia cell differentiation protein Mcl-1 (Homo sapiens, UniProt Q07820); format: functional
Induced myeloid leukemia cell differentiation protein Mcl-1, sequence (Q07820 whole entry): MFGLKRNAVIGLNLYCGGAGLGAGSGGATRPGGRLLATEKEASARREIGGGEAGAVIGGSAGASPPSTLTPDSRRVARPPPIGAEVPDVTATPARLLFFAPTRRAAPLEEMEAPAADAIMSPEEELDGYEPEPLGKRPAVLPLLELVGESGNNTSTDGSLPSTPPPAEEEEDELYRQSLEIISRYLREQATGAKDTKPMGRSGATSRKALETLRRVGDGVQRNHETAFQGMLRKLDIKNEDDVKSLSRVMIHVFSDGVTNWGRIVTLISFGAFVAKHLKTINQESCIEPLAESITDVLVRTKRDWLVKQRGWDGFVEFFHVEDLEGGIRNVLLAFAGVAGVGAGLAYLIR

Paired box protein Pax-8, sequence (Q06710 whole entry): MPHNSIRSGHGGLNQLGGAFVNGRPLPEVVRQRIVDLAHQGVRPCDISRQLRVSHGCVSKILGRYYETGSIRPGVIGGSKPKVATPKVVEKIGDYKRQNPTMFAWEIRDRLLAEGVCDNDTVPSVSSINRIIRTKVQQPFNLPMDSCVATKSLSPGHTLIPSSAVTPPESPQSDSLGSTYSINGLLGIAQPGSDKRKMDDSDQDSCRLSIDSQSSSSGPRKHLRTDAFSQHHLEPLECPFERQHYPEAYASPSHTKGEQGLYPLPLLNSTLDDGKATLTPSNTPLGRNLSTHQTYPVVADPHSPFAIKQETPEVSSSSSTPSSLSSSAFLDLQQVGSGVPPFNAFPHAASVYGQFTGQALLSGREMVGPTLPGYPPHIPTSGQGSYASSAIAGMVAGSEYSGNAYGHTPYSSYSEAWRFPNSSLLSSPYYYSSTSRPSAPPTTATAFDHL
FAD-linked sulfhydryl oxidase ALR, sequence (P55789 whole entry): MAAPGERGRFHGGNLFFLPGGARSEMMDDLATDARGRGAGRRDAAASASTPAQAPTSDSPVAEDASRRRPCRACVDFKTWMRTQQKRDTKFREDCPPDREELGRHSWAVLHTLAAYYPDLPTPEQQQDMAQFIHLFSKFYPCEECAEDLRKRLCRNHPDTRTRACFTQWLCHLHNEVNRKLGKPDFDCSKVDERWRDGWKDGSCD

O=C(C[C@H]1CC[C@H]2[C@@H](COC[C@@H](O)CN2Cc2ccc(Oc3ccccc3)cc2)O1)N1CCCCC1
AC50 (Paired box protein Pax-8): 15 µM (active)

CC(OC(=O)Cc1nnc(O)c2ccccc12)C(=O)Nc1cc(Cl)cc(Cl)c1 (stereo not given)
IC50 (H9c2): 20.8 µM (active)

N=c1sccn1CC(=O)Nc1ccc(SC(F)F)cc1
AC50 [1]: 1.68 µM (active)

COC(=O)Nc1ccc(S(=O)(=O)Nc2ccc(O)cc2)cc1
AC50 [1]: 1.38 µM (active)

CC(=O)Nc1ccc(C(=O)N/N=C/c2ccccc2OC(=O)c2ccc(Cl)cc2)cc1
IC50 (H9c2): 8.26 µM (active)

COc1ccc(NC(=O)Nc2ccc3c(c2)C(=O)N([C@@H](C)CO)C[C@@H](C)[C@@H](CN(C)Cc2ccc(C(F)(F)F)cc2)OCCCC[C@@H](C)O3)cc1
AC50 (Paired box protein Pax-8): 8.18 µM (active)

Cc1ccc2nc(N(CCCN(C)C)C(=O)CCc3ccccc3)sc2c1
EC50 [2]: 16.6 µM (active)
EC50 [3]: 16.6 µM (active)

COCCn1/c(=N/C(=O)c2sc3ccccc3c2Cl)sc2cc(S(N)(=O)=O)ccc21
EC50 [2]: 23.2 µM (active)
EC50 [3]: 22.5 µM (active)

O=C(NCC1(c2ccccc2)CCCC1)C1(c2ccccc2)CCCC1
AC50 [4]: 10 µM (active)
EC50 (Protein RecA): 53.3 µM (active)

Cc1c(O)cccc1C(=O)N[C@@H](CSc1ccccc1)[C@H](O)CN1C[C@H]2CCCC[C@H]2C[C@H]1C(=O)NC(C)(C)C
CC50 (Vero): > 25 µM (active)

O=C(NCCc1ccc(F)cc1)C(=O)Nc1cc2c3c(c1)CC(=O)N3CCC2
IC50 (H9c2): > 79 µM (inactive)

Cn1c(/C=C/c2cccc([N+](=O)[O-])c2)c([N+](=O)[O-])c(=O)n(C)c1=O
AC50 [5]: 27.8 µM (active)
EC50 [6]: 7.56 µM (active)
CC50 (Vero): 22.7 µM (active)
EC50 [7]: 58.4 µM (active)
CC50 [8]: 36 µM (active)

Cc1ccc(CNC(=O)c2oc3ccc(S(=O)(=O)N4CCOCC4)cc3c2C)cc1
IC50 (H9c2): > 79 µM (inactive)
IC50 [9]: 23.5 µM (not active)

CC(C)CC(=O)NC(=S)NNC(=O)c1ccc([N+](=O)[O-])cc1
CC50 (Vero): 24.6 µM (active)

CCN(C(=O)c1ccc2c(Cl)c3c(nc2c1)CCC3)c1ccc(C)c(C)c1
AC50 [4]: 14.1 µM (active)
EC50 (Protein RecA): 2.59 µM (active)

Oc1nnc(CNc2ccc(C(F)(F)F)cc2)c2ccccc12
IC50 (H9c2): 27.5 µM (active)

CC(NC(=O)c1ccccc1NC(=O)CN1CCc2ccccc2C1)c1ccccc1 (stereo not given)
AC50 [10]: 9.12 µM (active)
AC50 [11]: 49.2 µM (active)

CCOC(=O)c1cn(-c2nc(-c3ccc(Cl)c(Cl)c3)cs2)c2c(F)c(N3CCOCC3)c(F)cc2c1=O
EC50 [2]: 8.96 µM (active)
EC50 [3]: 18.6 µM (active)
CC50 [8]: 28.4 µM (active)

O=C(Cn1[nH]c(=O)c2ccccc2c1=O)NC1CCCCCC1
IC50 (H9c2): 25.3 µM (active)

COc1ccc(NC(=O)C(Sc2nnc(-c3ccncc3)n2-c2ccccc2C)c2ccccc2)cc1Cl (stereo not given)
AC50 (Paired box protein Pax-8): 15.5 µM (active)

COc1ccnc(Oc2ccc(F)cc2)c1C(=O)N=CNOCc1ccc(Cl)cc1Cl
IC50 (H9c2): > 79 µM (inactive)

CCOc1cc(/C=N\NC(=O)c2ccc(NC(=O)C(C)(C)C)cc2)ccc1OC(=O)c1cccc(C)c1
IC50 (H9c2): > 79 µM (inactive)

O=C(CCl)N1CCN(S(=O)(=O)c2ccc3ccccc3c2)CC1
AC50 [4]: 12.7 µM (active)
EC50 (Protein RecA): 1.58 µM (active)

COc1cc(C(=O)NNC(=O)c2ccc3ccccc3n2)cc(OC)c1OC
IC50 (H9c2): 8.15 µM (active)

COc1ccc2nc(SCC(=O)Nc3ccc4sc(C)nc4c3)c(C#N)cc2c1
EC50 [2]: 21.3 µM (active)
EC50 [3]: 20 µM (active)

O=C(NCc1ccco1)/C(=C/c1cccc(C(F)(F)F)c1)c1nc2ccccc2[nH]1
CC50 (Vero): 13.7 µM (active)
AC50 [4]: > 380 µM (inactive)
EC50 (Protein RecA): 54.4 µM (active)

CCOc1ccc(-n2c(SCC(=O)Nc3cc(C)on3)nc3c4ccccc4nc-3c2O)cc1
EC50 [2]: 28.4 µM (active)
EC50 [3]: 28.6 µM (active)

CCN(CC(=O)Nc1c(C(=O)OC)[nH]c2ccc(Cl)cc12)c1ccc2c(c1)OCO2
EC50 [2]: 19.4 µM (active)
EC50 [3]: 27.7 µM (active)

Cc1ccc(NC(=O)CN2C(=O)/C(=C3\SC(=S)N(C4CCS(=O)(=O)C4)C3=O)c3ccccc32)cc1 (stereo not given)
IC50 [12]: 24.1 µM (active)
IC50 [9]: 9.72 µM (not active)

Cc1ccc(OCCN2CCN(CC(O)Cn3c4ccccc4c4ccccc43)CC2)cc1 (stereo not given)
EC50 [2]: 13.6 µM (active)
EC50 [3]: 10.9 µM (active)
